From ChEMBL document CHEMBL1144947, “L-Serine and glycine based ceramide analogues as transdermal permeation enhancers: polar head size and hydrogen bonding” (2003)

Experiments:
[1] = organism: Homo sapiens; assay: Enhancement ratio in theophylline permeation through human skin from isopropyl myristate (IPM) suspension (in vitro); type: functional
[2] = organism: Homo sapiens; assay: Enhancement ratio in theophylline permeation through human skin from water (in vitro); type: functional

Structure (SMILES): CCCCCCCC/C=C/CCCCCCCC(=O)NC(CO)C(=O)OCCCCCCCCCCCC (centres undefined)
- ER [1]: 1.49
- ER [2]: 1.26

Structure (SMILES): CCCCCCCCCCCCOC(=O)C(CO)NC(=O)C(CO)NC(=O)CCCCCCCCCCC (centres undefined)
- ER [1]: 1.07
- ER [2]: 1.26

Structure (SMILES): CCCCCCCCCCCCOC(=O)CNC(=O)CCCCCCCCCCC
- ER [1]: 1.11
- ER [2]: 12.5

Structure (SMILES): CCCCCCCCCCCCOC(=O)C(CO)NC(=O)C(O)C(O)C(=O)OCCCCCCCCCCC (centres undefined)
- ER [1]: 1.45
- ER [2]: 1.39

Structure (SMILES): CCCCCCCCCCCCOC(=O)CNC(=O)CNC(=O)CCCCCCCCCCC
- ER [1]: 1.09
- ER [2]: 2.28

Structure (SMILES): CCCCCCCCCCCCOC(=O)C(CO)NC(=O)CCCCCCCCCCC (centres undefined)
- ER [1]: 1.21
- ER [2]: 2.74

Structure (SMILES): CCCCCCCCCCCCN1CCCCCC1=O [LAUROCAPRAM]
- ER [1]: 0.6
- ER [2]: 2.5
